Measured values reported in patent US20230235374A1, “High Throughput Assays for Detecting Translation Readthrough Inducers” (The Trustees of the University of Pennsylvania, priority 2021, published 2023).

What was measured:
[1] = test system: Stop-POST5 / Stop-PRE6 complex; test: High throughput translocation assay (proflavin fluorescence, plate reader); assay type: biochemical; settings: FIG. 17B
Excerpt: FIGS. 17A, 17B, 17C, and 17D are graphs showing data from the high throughput translocation assay. FIG. 17A is a graph showing a stable prf-fluorescence increase at different G418 concentrations [G418] due to eEF2-dependent conversion of a Stop-PRE6 complex to a Stop-POST6 complex, resulting from the increase in quantum yield of Trp-tRNA(prf). FIG. 17B is a graph showing fluorescence results in FIG. 17A as a function of [G418]. FIG. 17C is a graph showing the kinetics of Stop-PRE6 translocation, measured at 1 μM eEF2 and 2 μM G418. FIG. 17D is a graph showing the kinetics of Trp-PRE6 translocation to Trp-POST6 measured at 0.05 μM of eEF2 in the absence of G418.
Different proflavin-labeled aa-tRNAs, denoted aa-tRNA(prf)s, were used to monitor the elongation cycle changes by fluorescence change at 511 nm following excitation at 458 nm (Ng et al. PNAS, 118(2) e2020599118, 1-10 (2021)). Binding of Trp-TC(prf) to a Trp-POST5 complex in the presence of eEF2 lead to a biphasic increase, with the first, more rapid phase corresponding to formation of Trp-PRE6, followed by a slower, eEF2-dependent phase corresponding to conversion of Trp-PRE6 into Trp-POST6. The translocation step was monitored using a plate-reader assay for both G418-stimulated readthrough of Stop-POST5 (FIGS. 17A-17C) and cognate elongation of Trp-POST5 (FIG. 17D) by adjustment of [eEF2].

eRF1 = target: T1, eRF1 (Saccharomyces cerevisiae, UniProt P12385); test: [3H]-AzAt photoaffinity labeling of isolated eRF1; assay type: binding; settings: FIG. 2E
T1 construct: made in house; host or cells: E. coli BL21(DE3) CodonPlus
T1 sequence (P12385 whole entry): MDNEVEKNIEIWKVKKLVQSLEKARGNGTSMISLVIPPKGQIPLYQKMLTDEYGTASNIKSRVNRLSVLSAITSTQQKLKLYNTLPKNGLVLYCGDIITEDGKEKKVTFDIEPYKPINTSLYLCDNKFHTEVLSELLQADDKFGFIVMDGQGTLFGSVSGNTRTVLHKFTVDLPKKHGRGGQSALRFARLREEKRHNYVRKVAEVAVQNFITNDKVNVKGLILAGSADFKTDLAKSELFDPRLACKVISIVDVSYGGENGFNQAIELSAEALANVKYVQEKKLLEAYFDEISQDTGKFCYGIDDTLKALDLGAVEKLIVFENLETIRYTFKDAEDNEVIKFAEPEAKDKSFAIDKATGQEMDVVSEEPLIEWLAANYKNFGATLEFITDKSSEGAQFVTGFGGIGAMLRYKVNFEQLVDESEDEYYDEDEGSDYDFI
Method: (§1) Photoaffinity labeling with [^3H]-AzAt. Samples in Buffer 4, typically 20 μL, were incubated in the dark (20 min for Stop-POST5 and 80S-IRES complexes, 2 min for release factors) with various concentrations of [^3H]-AzAt at 37° C., transferred to a UV-transparent cuvette which was covered with parafilm to prevent evaporation, and irradiated in a Rayonet photochemical reactor equipped with 300 nm UV lamps for 5 min at room temperature. This was followed by quenching with 2 mM DTT at 37° C. for 5 min under ambient light. The irradiation time gave complete photolysis of the phenyl azide moiety in AzAt. Photolysis was also complete at 5 min in the presence of 1 mM ataluren, ruling out internal filtering effects.
(§2) Photoaffinity labeling of release factors. Solutions containing eRF1 (10 μM), eRF3 (20 μM) and 1 mM GMPPMP were pre-incubated at 37° C. for 2 min to form the ternary complex prior to photolabeling with [^3H]-AzAt. After quenching, reaction mixtures were loaded onto a 4-15% mini protean SDS-PAGE gel for protein separation and isolation. Gel slices containing eRF1 or eRF3, as shown by Coomassie Blue R250 staining, were crushed and the radioactivity was extracted in extraction buffer (50 mM Tris-HCl, 150 mM NaCl, and 0.1 mM EDTA; pH 7.5) by vigorously shaking at 70° C. for 30 min. The data fitting was performed using the software Prism. Labeling results of eRF1 alone and within the eRF1.eRF3.GDPNP complex were fit with a one-site binding model and a two-site binding model, respectively.

[2] = Solubility in aqueous medium; assay type: physicochemical
[3] = test system: Small RNAs within Stop-POST5 complex; test: AzAt photoincorporation into small RNAs (urea-PAGE, RNAse H fragments); assay type: binding, shrimp (Artemia salina)
Method: FIG. 11 illustrates 8% Urea-PAGE resolution of small RNAs.
as §1
Stop-POST5 and 80S-IRES complexes. 1 μM solutions of either Stop-POST5 or 80S-S.IRES, determined by A260, were photolabeled by [^3H]-AzAt. The sample was then either directly purified by ultracentrifugation through a sucrose cushion to determine the photoincorporation stoichiometry in the complex, or subjected to phenol/chloroform extraction to determine the photoincorporation stoichiometry in the total RNA. To determine the photoincorporation background arising from incomplete removal of noncovalently bound photolyzed AzAt, AzAt was prephotolysed for 5 min before adding to the complex, followed by the 20 min incubation in dark at 37° C. and subsequent sucrose cushion purification or RNA extraction as described above.
(§3) RNaseH Fragment Assay. Total RNA was prepared from the ^3H-AzAt photoaffinity labeled ribosome by phenol-chloroform extraction. RNA: DNA duplexes were formed by incubating total RNA (0.2 μM) with an oligonucleotide pair (1 μM of each, sequences shown Table 1), flanking a specific RNA region, in 22.8 μL of water at 95° C. for 2 min, followed by annealing at 50° C. for 30 s and quenching on ice. Six units (1.2 μL) of RNase H (NEB) and 6 μl of 5×RNase H Reaction Buffer were next added to the RNA: DNA duplex and incubated at 37° C. for 1 hour, followed by phenol-chloroform extraction of RNA. The digested RNA was separated on 12% TBE-Urea PAGE gel, and the target band along with the adjacent upper and bottom gels were sliced by a 2 mm gel cutter. The gel slices were crushed and the ^3H labeled rRNA fragment was extracted in water by vigorously shaking at 70° C. for 30 min, or by overnight extraction in elution buffer (0.3M sodium acetate, 0.25% SDS, 1 mM EDTA). The slurry was removed by centrifugation and the eluted ^3H labeled rRNA in the supernatant was quantified. The stoichiometry of AzAt photoincorporation was calculated based on a gel recovery yield of 20±2%, determined using an authentic sample of [^3H]-Gln-tRNA^Gln.
Small RNAs. AzAt photoincorporation into the 4 small RNAs (CrPV-IRES, 5.8S rRNA, 5S rRNA, and tRNA) contained within POST5 was examined by one-dimensional (1D) urea-PAGE analysis, by RNA-Seq, and by RNAse H fragment assay (FIG. 11).

[4] = test system: rRNA fragments I-IV of Stop-POST5; test: RNaseH fragment assay, Stop-POST5; assay type: binding, shrimp (Artemia salina)
Method: as §3
Testing the functional pertinence of AzAt photolabeling of 18S A1195, 28S-A3093, 28S-A2672, and 28S-2669. An RNAse H fragment assay was employed to determine whether the potential functionally significant sites identified by LASER-seq correspond to ataluren binding sites relevant for termination activity. In this assay, oligonucleotide hybridization, RNase H digestion and polyacrylamide gel electrophoresis (PAGE) were used to determine the stoichiometry of [^3H]-AzAt photoincorporation into the three rRNA fragments that together include the four nucleotides of interest: Fragment I, 18S-A1195; Fragment II, 26S-A3093; Fragment III, 26S-A2669 and 26S-A2672 (Table 5). The separate addition of four potential competitors of AzAt binding (eRF1 alone, the stably bound eRF1.eRF3.GDPNP complex, ataluren, and the ataluren-like TRID GJ072) was used to test how these affected such photoincorporation. These experiments, the results of which are summarized in Table 5, were performed at two different AzAt concentrations. eRF1 and eRF1.eRF3.GDPNP effects were measured using 300 μM AzAt, paralleling the LASER-Seq PAL experiments.

[5] = target: T2, eRF1.eRF3.GDPNP ternary complex (Saccharomyces cerevisiae, UniProt P12385); test: [3H]-AzAt photoaffinity labeling of eRF1 within ternary complex; assay type: binding; settings: compared with isolated eRF1, FIG. 2E
T2 construct: made in house; host or cells: E. coli BL21(DE3) CodonPlus
T2 sequence (P05453 166-685): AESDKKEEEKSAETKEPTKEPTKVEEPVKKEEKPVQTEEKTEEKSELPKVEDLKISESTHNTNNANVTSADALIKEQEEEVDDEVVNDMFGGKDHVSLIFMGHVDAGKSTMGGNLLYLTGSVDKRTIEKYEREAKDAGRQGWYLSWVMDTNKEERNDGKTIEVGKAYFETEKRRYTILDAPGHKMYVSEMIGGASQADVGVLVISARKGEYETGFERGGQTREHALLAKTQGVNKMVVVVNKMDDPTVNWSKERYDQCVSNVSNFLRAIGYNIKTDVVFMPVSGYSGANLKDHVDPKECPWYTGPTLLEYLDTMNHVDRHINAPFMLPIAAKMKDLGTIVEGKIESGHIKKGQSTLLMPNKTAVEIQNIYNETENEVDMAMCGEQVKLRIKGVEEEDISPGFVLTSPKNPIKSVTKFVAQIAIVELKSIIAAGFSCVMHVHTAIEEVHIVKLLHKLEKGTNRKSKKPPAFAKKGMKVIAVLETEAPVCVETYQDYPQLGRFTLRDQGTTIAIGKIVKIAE
T2 sequence (P12385 whole entry): as the sequence (P12385 whole entry) above
Method: as §1, §2

[6] = PAL, 30 μM AzAt, alone or plus competing ligand named as label
[7] = Stop-POST5, PAL, 30 μM AzAt, alone or plus Ataluren 500 μM / GJ072 150 μM named as label

CN[C@@H]1[C@@H](O)[C@@H](O[C@@H]2[C@@H](O)[C@H](O[C@H]3O[C@H]([C@@H](C)O)[C@@H](O)[C@H](O)[C@H]3N)[C@@H](N)C[C@H]2N)OC[C@]1(C)O [G418]
EC50 value, G418-stimulated readthrough translocation [1]: fully consistent with previous determination

COc1cccc(-n2c(SCC(=O)Nc3ccc(F)cc3)nnc2-c2ccccn2)c1 [GJ072]
effect on AzAt photoincorporation into isolated eRF1 (eRF1): substantially inhibited | solubility in aqueous medium [2]: limited solubility | Photoincorporation yields into CrPV-IRES nts1-155 ([3]; PAL, 30 μM AzAt, alone (AzAt) or plus competing ligand named as label (Ataluren 500 μM, GJ072 150 μM)): 0.51 ± 0.03 mole % | Photoincorporation yields into 5S rRNA [3, 6]: 0.15 ± 0.01 mole % | Photoincorporation yields into 5.8S rRNA [3, 6]: 0.19 ± 0.07 mole % | Photoincorporation yields into CrPV-IRES All [3, 6]: 0.59 ± 0.14 mole % | Photoincorporation yields into CrPV-IRES nts156-221 [3, 6]: 0.22 ± 0.05 mole % | Photoincorporation yields into CrPV-IRES nts222-278 [3, 6]: 0.09 ± 0.05 mole % | Photoincorporation yields into tRNA^Gln [3, 6]: 0.25 ± 0.03 mole % | effect on AzAt labeling of CrPV-IRES fragments 1-155 and 156-221 ([3]; RNAse H fragment assay): no clearly significant changes | effect on AzAt labeling of small RNAs ([3]; none clearly significant): generally small reductions | effect on AzAt photoincorporation into Fragment IV (26S A1437/A1438) [4]: neither ataluren nor GJ072 reduce labeling at all | effect on AzAt photoincorporation into Fragment I (18S-A1195) ([4]; Stop-POST5): strongly inhibited | effect on AzAt photoincorporation into Fragment II (A3093) ([4]; Stop-POST5): stimulated | effect on AzAt photoincorporation into Fragment III (A2669/A2672) ([4]; Stop-POST5): only weakly inhibited | Photoincorporation yields into 18S A1195/ I: 18S 1151-1206 [4, 7]: 0.10 ± 0.01 mole % | Photoincorporation yields into 26S-A2669:A2672/ III: 26S 2638-2702 [4, 7]: 0.07 ± 0.01 mole % | Photoincorporation yields into 26S-A3093/ II: 26S 3069-3113 [4, 7]: 0.07 ± 0.01 mole % | Photoincorporation yields into RNAse H Fragment IV: 26S 1413-1476 [4, 7]: 0.019 ± 0.004% | inhibition of AzAt photoincorporation into eRF1 within the ternary complex [5]: less marked
